According to patent US9801943B2, “Method for in vivo targeting of nanoparticles via bioorthogonal copper-free click chemistry” (KOREA INSTITUTE OF SCIENCE AND TECHNOLOGY, priority 2012, dated 2017):

Assays:
A549 tumors [1] = assay: In vivo and ex vivo NIRF imaging of tumor targeting in A549 tumor-bearing mice; settings: i.v., same fluorescence intensity as DBCO-lipo
Protocol: All experiments using live animals were performed in compliance with the relevant laws and the institutional guidelines of the Korea Institute of Science and Technology (KIST) and under the approval by the institutional committee. For in vivo and ex vivo experiments, 1.0×10^7 A549 tumor cells were administered to 5-week-old male athymic nude mice (20 g, Institute of Medical Science, Tokyo, Japan) on both flanks by subcutaneous injection. […] DBCO-lipo (10 mg/kg), DBCO-free control liposome (10 mg/kg) or DBCO-fluorescent dye conjugate of the same fluorescence intensity as DBCO-lipo were injected into the tail veins of two A549 tumor-bearing mice. […] Near-infrared (NIR) fluorescence emission at 700 nm was collected and detected with a fast photomultiplier tube (Hamamatsu, Japan) and a time-correlated single photon counting system (Becker and Hickl GmbH, Berlin, Germany). The active tumor targeting characteristics of DBCO-lipo were evaluated by capturing 20 z-section images at 1.0 mm spacing using the Analysis Workstation software (ART Advanced Research Technologies Inc., Montreal, Canada). […] NIR fluorescence images were obtained using a 12-bit CCD (Kodak Image Station 4000 MM, New Haven, Conn., USA) equipped with a Cy5.5 emission filter (600-700 nm; Omega Optical). […] All numerical values were expressed as mean±standard deviation for the three animal groups. […]

A549 cells = assay: Generation of azide groups on A549 cells (Coomassie staining, western blot with phosphine-FLAG); format: cell-based, human; settings: Ac4ManNAz 0.5, 5, 50 μM, 3 days
Protocol: A549 cells in 10 mL of media with no sugar or different concentrations of Ac4ManNAz (final concentrations of 0.5 μM, 5 μM and 50 μM) were seeded onto 100×20 mm polystyrene tissue culture plates at a density of 1.5×10^6 cells per plate and incubated for 3 days. The cells were washed twice with PBS (pH 7.4) and harvested from the plates with a cell scraper. The cells were pelletized by centrifuging at 3,000×g for 5 minutes and the supernatant was discarded. The cell pellets were resuspended in 500 μL of lysis buffer (1% SDS, 100 mM Tris.HCl, pH 7.4) containing protease inhibitor (Complete, EDTA-free) and lysed at 4° C. using a probe-type sonicator. The sonicated lysates were incubated at 4° C. for 30 minutes to further solubilize proteins. Insoluble debris was removed by centrifuging at 3,000×g for 10 minutes. Total soluble protein concentration was determined by the bicinchroninic acid (BCA) protein assay (Pierce, Ill., USA) to be 5 mg/mL. 20 μL of the lysate (5 mg/mL protein) was incubated with 2 μL of phosphine-FLAG (5 mM in PBS, pH 7.4) (Sigma, St. Louis, Mo., USA) at 37° C. for 6 hours. SDS-PAGE loading buffer was added to each sample. Then, aliquots were loaded onto 10% SDS-PAGE after heating at 95° C. […]

A549 tumors [2] = assay: Generation of azide groups in tumor tissues (western blot, immunohistochemical staining); format: in vivo, mice; settings: Ac4ManNAz 0.5, 5, 50 mM intratumoral once daily for 3 days; tumors dissected on day 4
Protocol: Preparation of tumor-bearing mouse models and administration of Ac4ManNAz were performed according to the same method as described above. 24 hours after the injection of Ac4ManNAz (on day 4), the tumors were dissected, transferred into 1 mL of lysis buffer (1% SDS, 100 mM Tris.HCl, pH 7.4) containing protease inhibitor (Complete, EDTA-free), and homogenized using a homogenizer (WiseMix HG-15D, Daihan Scientific, Seoul, Korea). The lysate was incubated at 4° C. for 30 minutes and insoluble debris was removed by centrifuging at 3,000×g for 10 minutes. Protein concentration was measured using the BCA protein assay kit. Staudinger reaction with phosphine-FLAG, SDS-PAGE and western blot analysis were conducted as described above.
The dissected tumor tissues were retrieved and fixed in a 4% (v/v) buffered formalin solution, dehydrated with graded ethanol series, and embedded in paraffin. The paraffin tissues were sliced into 4-μm wide slices and immunohistochemical staining was performed using Histostain®-Plus Brod Spectrum (Invitrogen, CA, USA) in combination with phosphine-FLAG and monoclonal anti-FLAG-HRP antibodies according to the manufacturer's instructions. The paraffin slices were dehydrated, mounted using the Permount SP15-100 Toluene Solution (Fisher Scientific, NJ, USA) mounting medium, and observed with an optical microscope (BX51, Olympus, Tokyo, Japan). […]

Compound	NIRF image brightness in mice (A549 tumors [1])	generation of azide groups on cell surface (A549 cells)	amount of azide groups in tumor tissues (A549 tumors [2])
dibenzylcyclooctyne-SETA650 [DBCO-SETA]	relatively dim images	–	–
CC(=O)OC[C@H]1OC(OC(C)=O)[C@@H](NC(=O)CN=[N+]=[N-])[C@@H](OC(C)=O)[C@@H]1OC(C)=O (stereo partly drawn) [Ac4ManNAz, Tetraacetylated N-azidoacetyl-D-mannosamine]	–	modified azide groups could be generated on the surface of the A549 cells	increased in a dose-dependent manner
